Experimental data reported in patent US20220323443A1, “COMBINATION THERAPY FOR CANCER TREATMENT” (TAKEDA PHARMACEUTICAL COMPANY LIMITED, priority 2019, published 2022).
Structures can show the parent of a compound that is named as a salt. Where two headings read alike, the source gives them in different places. *1 amine or outer side, *2 acyl side, *3 side chain or, on linkers, in order; H or OH if unused. Where a SMILES comes first, the peptide text is derived from it. Bridges are numbered along the chain shown (N, C = ends). Roman numbers before positions name the chains, in order. [ ]: non-standard residue; d: D form. Actinocin(9to1) = Cc1c2oc3c(C)ccc(C(=O)[*:1])c3nc-2c(C(=O)[*:2])c(N)c1=O; NMeV = CN[C@H](C(=O)O)C(C)C; Sar = CNCC(=O)O

Legend:
Experiment in all cases: In vitro combination study with Compound 1, Cell Titer-Glo (ATP) cell viability, 72 h;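 as to Call, anti-proliferative effect of combination with Compound 1, A549: Ten-by-ten dose matrices of the two agents in duplicate, compounds added 16 h post-plating, activity relative to DMSO vehicle wells, call reflects synergy evaluation from luminescence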;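 as to Call, anti-proliferative effect of combination with Compound 1, COLO205: Ten-by-ten dose matrices of both agents in duplicate plus single-agent dilutions, luminescent ATP read-out, percent activity per well relative to DMSO vehicle wells, synergy call from these matrices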;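 as to Call, anti-proliferative effect of combination with Compound 1, H460: Ten-by-ten dose matrices of both drugs alongside single-agent dilutions, luminescence read 72 hours after compound addition, percent activity per well versus vehicle (DMSO) plate controls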;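 as to Call, anti-proliferative effect of combination with Compound 1, HCT116: combination call from 10×10 dose matrices in duplicate, graded by synergy, with percent activity per well relative to DMSO vehicle controls on the same plate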;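 as to Call, anti-proliferative effect of combination with Compound 1, SW620: Ten-by-ten dose matrices of both drugs in 384-well plates, luminescent ATP read-out, synergy evaluated against single-agent and DMSO vehicle controls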
[1] = tested on: A549 cancer cells; assay type: cell-based;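 also: Ten-by-ten dose matrices of the two agents in duplicate, compounds added 16 h post-plating, activity relative to DMSO vehicle wells, call reflects synergy evaluation from luminescence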
[2] = tested on: COLO205 cancer cells; assay type: cell-based, human;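 also: Ten-by-ten dose matrices of both agents in duplicate plus single-agent dilutions, luminescent ATP read-out, percent activity per well relative to DMSO vehicle wells, synergy call from these matrices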
Procedure: (§1) Each combination pair was evaluated in an individual 384-well plate which contained variable doses of both compounds as single agents, as well as two, ten-by-ten matrices (in duplicate) that contained mixtures of the two test compounds. In brief, compounds were added to the cell test plates 16 hours after cell plating and then assessed for viability 72 hours later. Continuous cultures of tumor cells were maintained under standard cell culturing conditions (i.e. in a humidified chamber set at 37° C., containing atmosphere 5% carbon dioxide). […] Seventy-two hours after compound addition, ATP levels were measured to assess cell viability. Plating densities were chosen to ensure optimal linear growth over the 72 hour period.
(§2) Compound dilution and compound delivery to the assay plates were done on HighRes Robotic System (HighRes Biosolutions, Woburn, Mass., USA) with Echo™ Liquid Handler (Labcyte, Sunnyvale, Calif., USA). […] Next, these were used for compound transfer into cell assay plates. All wells were back-filled to give a constant percentage of DMSO.
(§3) The final DMSO concentration was held constant in all wells across the plate and was maintained at less than 0.5%. […] Cells treated with vehicle (DMSO) in two rows, or single compound serial dilutions in one plate columns/row served as the untreated control and single compound controls, respectively.
(§4) Compound activity in A549, COLO205, H460, HCT116, SW48, SW620 cancer cell lines was assessed using Cell Titer-Glo® (Promega [Madison, Wis., USA]). After 72 hours incubation, the plates were treated as per package insert protocol for the Promega Luminescence ATP Detection Systems. Briefly, 25 μL of cell lysis/substrate solution (provided in kit form) was added to each well and the plate was incubated at room temperature for 10 minutes. Luminescence was measured using a PHERAstar multi-label counter (BMG Labtech [Ortenberg, Germany]) or LEADseeker (GE Healthcare Life Sciences [Piscataway, N.J., USA]).
(§5) Numerical luminescence values were analyzed to generate EC50 curves and evaluate synergy. Raw Data reader files were uploaded along with automation workfiles that defined the plate and well contents. Percent activities were calculated for each well versus plate controls.
(§6) Each plate representing a single drug combination was analyzed separately. First, the viability measurements were normalized by scaling the data so that the median of the negative controls was 0 and the median of the positive controls was 100.
(§7) For the combination analysis, a response surface model was used to describe the relationship between the normalized viability and the drug concentrations. The data were fit to the model by minimizing the residual sum of squares. Based on the fitted response surface, plots of constant viability, called isobolograms, were produced.
(§8) The Combination Index and Nonlinear Blending were used as measures of drug synergy. To calculate Combination Index the 50% isobologram (which is the dose contour that has 50% viability) was used. […] A standard procedure was created to produce a call in order to characterize the viability effects for each combination (synergy, additivity, subadditivity, or antagonism). If the Combination Index existed then these measures were used to make the call.

[3] = tested on: H460 cancer cells; assay type: cell-based;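 also: Ten-by-ten dose matrices of both drugs alongside single-agent dilutions, luminescence read 72 hours after compound addition, percent activity per well versus vehicle (DMSO) plate controls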
Procedure: as §1, §2, §3, §4, §5, §6, §7, §8

[4] = tested on: HCT116 cancer cells; assay type: cell-based;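 also: combination call from 10×10 dose matrices in duplicate, graded by synergy, with percent activity per well relative to DMSO vehicle controls on the same plate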
[5] = tested on: SW48 cancer cells; assay type: cell-based; conditions: 72 h
Procedure: as §1
Compound dilution and compound delivery to the assay plates were done on HighRes Robotic System (HighRes Biosolutions, Woburn, Mass., USA) with Echo™ Liquid Handler (Labcyte, Sunnyvale, Calif., USA). First, 384-well low dead volume (LDV) plates containing DMSO (Appendix B) and 10 mM compound stock solutions were used to create the required intermediate compound dilution plates. Next, these were used for compound transfer into cell assay plates. All wells were back-filled to give a constant percentage of DMSO.
as §3, §4, §5, §6, §7, §8

[6] = tested on: SW620 cancer cells; assay type: cell-based;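 also: Ten-by-ten dose matrices of both drugs in 384-well plates, luminescent ATP read-out, synergy evaluated against single-agent and DMSO vehicle controls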
[7] = DNA damaging agent combined with Compound 1, 72 h
[8] = DNA damaging agent combined with Compound 1
[9] = Table 5 drug combined with Compound 1, 72 h

Structure (SMILES) | Call, anti-proliferative effect of combination with Compound 1, H460 [3, 7] | Call, anti-proliferative effect of combination with Compound 1, HCT116 [4, 7] | Call, anti-proliferative effect of combination with Compound 1, SW620 [6, 7] | Call, anti-proliferative effect of combination with Compound 1, A549 [1, 9] | Call, anti-proliferative effect of combination with Compound 1, COLO205 [2, 9] | Call, anti-proliferative effect of combination with Compound 1, H460 [3, 9] | Call, anti-proliferative effect of combination with Compound 1, HCT116 [4, 9] | Call, anti-proliferative effect of combination with Compound 1, SW620 [6, 9] | Call, anti-proliferative effect of combination with Compound 1, A549 [1] | also measured
O=C1c2c(O)ccc(O)c2C(=O)c2c(NCCNCCO)ccc(NCCNCCO)c21 [Mitoxantrone hydrochloride] | Synergy (0 to 0.7) | Synergy (0 to 0.7) | Synergy (0 to 0.7) |  |  |  |  |  |  | Call, anti-proliferative effect of combination with Compound 1, A549 [1, 7]: Synergy (0 to 0.7); Call, anti-proliferative effect of combination with Compound 1, COLO205 [2, 7]: Synergy (0 to 0.7); Call, anti-proliferative effect of combination with Compound 1, SW48 [5, 8]: Additivity (0.7 to 1.3)
Cn1c(=O)n(-c2ccc(C(C)(C)C#N)cc2)c2c3cc(-c4cnc5ccccc5c4)ccc3ncc21 [BEZ-235] |  |  |  | Additivity (0.7 to 1.3) | Additivity (0.7 to 1.3) | Additivity (0.7 to 1.3) | Additivity (0.7 to 1.3) | Subadditivity (1.3 to 2) |  | Call, anti-proliferative effect of combination with Compound 1, SW48 ([5]; Table 5 drug combined with Compound 1): Antagonism (>2)
C/C=C(/C)C(=O)O[C@H]1C(C)=C2[C@H]([C@@H]1OC(=O)CCCCCCC)[C@@](C)(OC(C)=O)C[C@H](OC(=O)CCC)[C@@]1(O)[C@H]2OC(=O)[C@@]1(C)O [Thapsigargin] |  |  |  | Additivity (0.7 to 1.3) | Additivity (0.7 to 1.3) | Additivity (0.7 to 1.3) | Additivity (0.7 to 1.3) | Additivity (0.7 to 1.3) |  | 
CO[C@H]1/C=C\C=C(/C)C(=O)NC2=CC(=O)C(NCCN(C)C)=C(C[C@@H](C)C[C@H](OC)[C@H](O)[C@@H](C)/C=C(\C)[C@@H]1OC(N)=O)C2=O [Compound 17-DMAG] |  |  |  | Subadditivity (1.3 to 2) | Additivity (0.7 to 1.3) | Additivity (0.7 to 1.3) | Additivity (0.7 to 1.3) | Additivity (0.7 to 1.3) |  | 
N[C@@H](Cc1ccc(N(CCCl)CCCl)cc1)C(=O)O [Melphalan] |  | Synergy (0 to 0.7) | Synergy (0 to 0.7) |  |  |  |  |  | Synergy (key: Inconclusive: Any; Additivity: 0.7 to 1.3; Synergy: 0 to 0.7; Subadditivity: 1.3 to 2; Antagonism: >2) | Call, anti-proliferative effect of combination with Compound 1, SW48 [5, 8]: Additivity (0.7 to 1.3)
S=P(N1CC1)(N1CC1)N1CC1 [Thio-tepa] | Additivity (0.7 to 1.3) | Synergy (0 to 0.7) | Synergy (0 to 0.7) |  |  |  |  |  | Additivity (key: Inconclusive: Any; Additivity: 0.7 to 1.3; Synergy: 0 to 0.7; Subadditivity: 1.3 to 2; Antagonism: >2) | Call, anti-proliferative effect of combination with Compound 1, SW48 [5, 8]: Additivity (0.7 to 1.3)
CO/C1=C\C(C)=C\[C@@H](C)[C@@H](O)[C@@H](C)C/C(C)=C/C=C/[C@H](OC)[C@@H]([C@@H](C)[C@@H](O)[C@H](C)[C@@]2(O)C[C@@H](O)[C@H](C)[C@@H](C(C)C)O2)OC1=O [Bafilomycin A] |  |  |  |  | Subadditivity (1.3 to 2) | Additivity (0.7 to 1.3) | Additivity (0.7 to 1.3) | Additivity (0.7 to 1.3) | Additivity (key: Inconclusive: Any; Additivity: 0.7 to 1.3; Synergy: 0 to 0.7; Subadditivity: 1.3 to 2; Antagonism: >2) | 
C=CCNC1=C2C[C@@H](C)C[C@H](OC)[C@H](O)[C@@H](C)/C=C(\C)[C@H](OC(N)=O)[C@@H](OC)/C=C\C=C(/C)C(=O)NC(=CC1=O)C2=O [Compound 17-AAG] |  |  |  | Additivity (0.7 to 1.3) | Additivity (0.7 to 1.3) | Additivity (0.7 to 1.3) | Additivity (0.7 to 1.3) | Additivity (0.7 to 1.3) |  | 
CS(=O)(=O)N1CCN(Cc2cc3nc(-c4cccc5[nH]ncc45)nc(N4CCOCC4)c3s2)CC1 [GDC-0941] |  |  |  | Additivity (0.7 to 1.3) | Additivity (0.7 to 1.3) | Synergy (0 to 0.7) | Synergy (0 to 0.7) | Additivity (0.7 to 1.3) |  | 
C[C@H]1CCC/C=C/[C@@H]2C[C@H](O)C[C@H]2[C@H](O)/C=C/C(=O)O1 [Brefeldin A] | Additivity (0.7 to 1.3) | Additivity (0.7 to 1.3) | Additivity (0.7 to 1.3) |  |  |  |  |  |  | Call, anti-proliferative effect of combination with Compound 1, A549 [1, 7]: Additivity (0.7 to 1.3); Call, anti-proliferative effect of combination with Compound 1, COLO205 [2, 7]: Subadditivity (1.3 to 2)
O=C(O)CCCc1ccc(N(CCCl)CCCl)cc1 [Chlorambucil] | Additivity (0.7 to 1.3) | Additivity (0.7 to 1.3) |  |  |  |  |  |  | Additivity (key: Inconclusive: Any; Additivity: 0.7 to 1.3; Synergy: 0 to 0.7; Subadditivity: 1.3 to 2; Antagonism: >2) | Call, anti-proliferative effect of combination with Compound 1, SW48 [5, 8]: Additivity (0.7 to 1.3)
Cc1cc2c(C(C)C)c(O)c(O)c(C=O)c2c(O)c1-c1c(C)cc2c(C(C)C)c(O)c(O)c(C=O)c2c1O [AT101] |  |  |  |  |  |  |  |  | Additivity (key: Inconclusive: Any; Additivity: 0.7 to 1.3; Synergy: 0 to 0.7; Subadditivity: 1.3 to 2; Antagonism: >2) | Call, anti-proliferative effect of combination with Compound 1, COLO205 [2]: Additivity (key: Inconclusive: Any; Additivity: 0.7 to 1.3; Synergy: 0 to 0.7; Subadditivity: 1.3 to 2; Antagonism: >2); Call, anti-proliferative effect of combination with Compound 1, H460 [3]: Additivity (key: Inconclusive: Any; Additivity: 0.7 to 1.3; Synergy: 0 to 0.7; Subadditivity: 1.3 to 2; Antagonism: >2); Call, anti-proliferative effect of combination with Compound 1, HCT116 [4]: Additivity (key: Inconclusive: Any; Additivity: 0.7 to 1.3; Synergy: 0 to 0.7; Subadditivity: 1.3 to 2; Antagonism: >2); Call, anti-proliferative effect of combination with Compound 1, SW620 [6]: Additivity (key: Inconclusive: Any; Additivity: 0.7 to 1.3; Synergy: 0 to 0.7; Subadditivity: 1.3 to 2; Antagonism: >2)
COc1cccc2c1C(=O)c1c(O)c3c(c(O)c1C2=O)C[C@@](O)(C(=O)CO)C[C@@H]3O[C@H]1C[C@H](N)[C@H](O)[C@H](C)O1 [Doxorubicin hydrochloride] | Synergy (0 to 0.7) | Subadditivity (1.3 to 2) | Additivity (0.7 to 1.3) |  |  |  |  |  |  | Call, anti-proliferative effect of combination with Compound 1, A549 [1, 7]: Synergy (0 to 0.7); Call, anti-proliferative effect of combination with Compound 1, COLO205 [2, 7]: Synergy (0 to 0.7)
Cc1c2oc3c(C)ccc(C(=O)N[C@@H]4C(=O)N[C@H](C(C)C)C(=O)N5CCC[C@H]5C(=O)N(C)CC(=O)N(C)[C@@H](C(C)C)C(=O)O[C@@H]4C)c3nc-2c(C(=O)N[C@@H]2C(=O)N[C@H](C(C)C)C(=O)N3CCC[C@H]3C(=O)N(C)CC(=O)N(C)[C@@H](C(C)C)C(=O)O[C@@H]2C)c(N)c1=O [Dactinomycin] (I: T[dV]P[Sar][NMeV] / II: T[dV]P[Sar][NMeV]; ester I:1-I:C, II:1-II:C; linker I:N-II:N via Actinocin(9to1)) | Additivity (0.7 to 1.3) | Additivity (0.7 to 1.3) | Additivity (0.7 to 1.3) |  |  |  |  |  | Additivity (key: Inconclusive: Any; Additivity: 0.7 to 1.3; Synergy: 0 to 0.7; Subadditivity: 1.3 to 2; Antagonism: >2) | Call, anti-proliferative effect of combination with Compound 1, COLO205 [2, 7]: Additivity (0.7 to 1.3)
Nc1ncn([C@H]2C[C@H](O)[C@@H](CO)O2)c(=O)n1 [Decitabine] | Synergy (0 to 0.7) | Synergy (0 to 0.7) | Additivity (0.7 to 1.3) |  |  |  |  |  |  | Call, anti-proliferative effect of combination with Compound 1, SW48 [5, 8]: Additivity (0.7 to 1.3)
C[C@@]1(CO)[C@H](O)CC[C@@]2(C)[C@H]1CC[C@H]1C[C@@H]3C[C@@]12CC[C@]3(O)COC(=O)CN.Cl [Aphidicolin glycinate] | Additivity (0.7 to 1.3) | Synergy (0 to 0.7) | Additivity (0.7 to 1.3) |  |  |  |  |  | Additivity (key: Inconclusive: Any; Additivity: 0.7 to 1.3; Synergy: 0 to 0.7; Subadditivity: 1.3 to 2; Antagonism: >2) | Call, anti-proliferative effect of combination with Compound 1, COLO205 [2, 7]: Additivity (0.7 to 1.3)
CC[C@]1(O)C[C@H]2CN(CCc3c([nH]c4ccccc34)[C@@](C(=O)OC)(c3cc4c(cc3OC)N(C=O)[C@H]3[C@@](O)(C(=O)OC)[C@H](OC(C)=O)[C@]5(CC)C=CCN6CC[C@]43[C@@H]65)C2)C1 [Vincristine sulfate] |  |  |  | Subadditivity (1.3 to 2) | Additivity (0.7 to 1.3) | Additivity (0.7 to 1.3) | Additivity (0.7 to 1.3) | Subadditivity (1.3 to 2) |  | 
